Data reported in patent US4770705A, “Salts of alkyl-2-benzimidazole-carbamate and fungicidal compositions thereof suitable for paints and plaster” (Schulke & Mayr GmbH, priority 1986, dated 1988).

How the values were obtained:
[1] = tested on: Aspergillus niger; experiment: Test Method A: fungus formation on treated paint/plaster discs, Aspergillus niger; format: cell-based
Protocol: (§1) The biological effectiveness of a product according to Example 1 was tested both in an aqueous acrylate paint and in an aqueous plaster dispersion as follows:
(§2) To 50 grams of a usual acrylic paint (for composition see Table I) and of a plaster (for composition see Table II) composition to be tested, the fungicidal compound of Example 1 was added in different concentrations. After extensive stirring, the samples were coated on a sheet of pasteboard and dried for 24 hours at room temperature and for an additional 24 hours at 40° C. These paper samples were then subjected for 72 hours to a water sprayout test whereby 1 liter of water per minute was flushed over the paper supports. After drying for 24 hours at room temperature and for 24 hours at 40° C., the test samples were irradiated for 24 hours with ultraviolet light. Test discs having a diameter of 50 mm were cut from the pasteboard and sterilized with ethylene oxide.
(§3) Sabouraud-plates were seeded with a 0.2 ml suspension of either Aspergillus niger or Alternaria containing about 10^7 germs per ml. The test discs were put onto the plates and incubated at a temperature of 25° to 27° C. for a period of 3 weeks. After a period of 1 or 2 or 3 weeks, respectively, the contamination was rated as follows:
(§4) 1=very small fungus formation (0-5% of the entire surface)
(§5) 2=weak fungus formation (5-25% of the entire surface)
(§6) 3=medium fungus formation (25 to 50% of the entire surface)
(§7) 4=strong fungus formation (50-99% of the entire surface)
(§8) 5=no inhibition of fungus formation.
(§9) A known tetradecane-sulfonic acid adduct of 2-methoxycarbonylaminobenzimidazole (BCM), CARBENDASULF (Hoechst AG, Frankfurt/Main, Germany; prepared according to Example 1 of U.S. Pat. No. 4,046,906), was used for comparison.

[2] = tested on: Alternaria; experiment: Test Method A: fungus formation on treated paint/plaster discs, Alternaria; format: cell-based
Protocol: as §1, §2, §3, §4, §5, §6, §7, §8, §9

[3] = acrylic dispersion paint, conc. 0.01%, 1 week
[4] = acrylic dispersion paint, conc. 0.01%, 2 weeks
[5] = acrylic dispersion paint, conc. 0.01%, 3 weeks
[6] = acrylic dispersion paint, conc. 0.02%, 1 week
[7] = acrylic dispersion paint, conc. 0.02%, 2 weeks
[8] = acrylic dispersion paint, conc. 0.02%, 3 weeks
[9] = acrylic dispersion paint, conc. 0.05%, 1 week
[10] = acrylic dispersion paint, conc. 0.05%, 2 weeks
[11] = acrylic dispersion paint, conc. 0.05%, 3 weeks

## COC(=O)Nc1nc2ccccc2[nH]1 [CARBENDASULF, tetradecane-sulfonic acid adduct of 2-methoxycarbonylaminobenzimidazole (BCM)]
[1]; [3]
  contamination rating (fungus formation): 3 (medium fungus formation (25 to 50% of the entire surface))
[1]; [4]
  contamination rating (fungus formation): 3 (medium fungus formation (25 to 50% of the entire surface))
[1]; [5]
  contamination rating (fungus formation): 4 (strong fungus formation (50-99% of the entire surface))
[1]; [6]
  contamination rating (fungus formation): 2 (weak fungus formation (5-25% of the entire surface))
[1]; [7]
  contamination rating (fungus formation): 2 (weak fungus formation (5-25% of the entire surface))
[1]; [8]
  contamination rating (fungus formation): 3 (medium fungus formation (25 to 50% of the entire surface))
[1]; [9]
  contamination rating (fungus formation): 1 (very small fungus formation (0-5% of the entire surface))
[1]; [10]
  contamination rating (fungus formation): 1 (very small fungus formation (0-5% of the entire surface))
[1]; [11]
  contamination rating (fungus formation): 2 (weak fungus formation (5-25% of the entire surface))
[1]; plaster, conc. 0.01%, 1 week
  contamination rating (fungus formation): 2 (weak fungus formation (5-25% of the entire surface))
[1]; plaster, conc. 0.01%, 2 weeks
  contamination rating (fungus formation): 3 (medium fungus formation (25 to 50% of the entire surface))
[1]; plaster, conc. 0.01%, 3 weeks
  contamination rating (fungus formation): 3 (medium fungus formation (25 to 50% of the entire surface))
[1]; plaster, conc. 0.02%, 1 week
  contamination rating (fungus formation): 1 (very small fungus formation (0-5% of the entire surface))
[1]; plaster, conc. 0.02%, 2 weeks
  contamination rating (fungus formation): 2 (weak fungus formation (5-25% of the entire surface))
[1]; plaster, conc. 0.02%, 3 weeks
  contamination rating (fungus formation): 3 (medium fungus formation (25 to 50% of the entire surface))
[1]; plaster, conc. 0.05%, 1 week
  contamination rating (fungus formation): 1 (very small fungus formation (0-5% of the entire surface))
[1]; plaster, conc. 0.05%, 2 weeks
  contamination rating (fungus formation): 1 (very small fungus formation (0-5% of the entire surface))
[1]; plaster, conc. 0.05%, 3 weeks
  contamination rating (fungus formation): 2 (weak fungus formation (5-25% of the entire surface))
[2]; [3]
  contamination rating (fungus formation): 3 (medium fungus formation (25 to 50% of the entire surface))
[2]; [4]
  contamination rating (fungus formation): 3 (medium fungus formation (25 to 50% of the entire surface))
[2]; [5]
  contamination rating (fungus formation): 4 (strong fungus formation (50-99% of the entire surface))
[2]; [6]
  contamination rating (fungus formation): 2 (weak fungus formation (5-25% of the entire surface))
[2]; [7]
  contamination rating (fungus formation): 2 (weak fungus formation (5-25% of the entire surface))
[2]; [8]
  contamination rating (fungus formation): 3 (medium fungus formation (25 to 50% of the entire surface))
[2]; [9]
  contamination rating (fungus formation): 1 (very small fungus formation (0-5% of the entire surface))
[2]; [10]
  contamination rating (fungus formation): 2 (weak fungus formation (5-25% of the entire surface))
[2]; [11]
  contamination rating (fungus formation): 2 (weak fungus formation (5-25% of the entire surface))
[2]; plaster, conc. 0.01%, 1 week
  contamination rating (fungus formation): 2 (weak fungus formation (5-25% of the entire surface))
[2]; plaster, conc. 0.01%, 2 weeks
  contamination rating (fungus formation): 3 (medium fungus formation (25 to 50% of the entire surface))
[2]; plaster, conc. 0.01%, 3 weeks
  contamination rating (fungus formation): 4 (strong fungus formation (50-99% of the entire surface))
[2]; plaster, conc. 0.02%, 1 week
  contamination rating (fungus formation): 1 (very small fungus formation (0-5% of the entire surface))
[2]; plaster, conc. 0.02%, 2 weeks
  contamination rating (fungus formation): 2 (weak fungus formation (5-25% of the entire surface))
[2]; plaster, conc. 0.02%, 3 weeks
  contamination rating (fungus formation): 4 (strong fungus formation (50-99% of the entire surface))
[2]; plaster, conc. 0.05%, 1 week
  contamination rating (fungus formation): 1 (very small fungus formation (0-5% of the entire surface))
[2]; plaster, conc. 0.05%, 2 weeks
  contamination rating (fungus formation): 2 (weak fungus formation (5-25% of the entire surface))
[2]; plaster, conc. 0.05%, 3 weeks
  contamination rating (fungus formation): 2 (weak fungus formation (5-25% of the entire surface))
